Results taken from PMC10073126, “Levosimendan inhibits disulfide tau oligomerization and ameliorates tau pathology in Tau^P301L-BiFC mice” (Experimental & Molecular Medicine, 2023).

What was measured:
Tau-BiFC cells = test: Flow cytometry analysis of tau-BiFC cells; type: cell-based, human; settings: for P1: intact cell population out of total cells: 24 h; for Median BiFC fluorescence intensity of BiFC-responding cells: BiFC^ON control […] ± 62, basal 332 ± 110
Description: After 24 h, BiFC cells were collected and subjected to flow cytometry analysis using a BD FACSLyric^TM cytometer (BD Biosciences). A total of 50,000 events were acquired per sample. All samples were gated using the same gating tree and gate positions: side scatter area (SSC-A) vs. forward scatter area (FSC-A) for viable and singlet cell populations. BiFC fluorescence was excited by a 488 nm wave laser and collected through a 527/32 bandpass filter.

Tau^P301L-BiFC mice [1] = test: Novel object recognition test; type: in vivo, mouse; settings: 5 mg/kg i.p., three times a week, 4 months; vehicle TG 0.49, WT 0.74
Description: (§1) For drug administration, LMTM and levosimendan were dissolved in PBS containing 40% polyethylene glycol (PEG; Sigma). Nine-month-old Tau^P301L-BiFC mice were intraperitoneally administered each drug for 4 months, three times a week, at a dosage of 5 mg/kg (n = 11 per group). Vehicle-treated Tau^P301L-BiFC mice and age-matched wild-type mice were used as control groups. Behavioral assessments were conducted as described below for one month from the end of drug administration. All mice were sacrificed at the age of 14 months for pathological analysis.
The novel object recognition test was performed as described previously. Briefly, for habituation, mice (n = 9 per group) were individually placed in the center of an open field arena (40 × 40 cm) and could freely explore for 15 min. The next day, in the training trial (familiarization phase), the mice could explore two identical objects in the open field for 10 min. […] The exploration time for the familiar (old) or the new (novel) object during the recognition phase was recorded using a Noldus EthoVision XT video tracking system. Memory was operationally defined by the recognition index calculated by dividing the time an animal spent exploring the novel object or old object by the total time spent exploring objects in the testing period. The exploration time was measured when the mouse pointed toward the object in the vicinity of the object.

Tau^P301L-BiFC mice [2] = test: Y-maze test; type: in vivo, mouse; settings: 5 mg/kg i.p., three times a week, 4 months; vehicle TG 52.8 ± 2.6%
Description: as §1
Mice (n = 11 per group) were tested for spontaneous alternation behavior in a Y-shaped maze (60 cm in length of each arm, 20 cm in depth) using a standard protocol. Spontaneous alternation for 8 min was calculated as the proportion of alternations. Alteration (%) was defined as consecutive entries in three different arms (ABCs) divided by the number of possible alterations (total arm entries minus 2)[43].

Tau^P301L-BiFC mice [3] = test: Passive avoidance test; type: in vivo, mouse; settings: 5 mg/kg i.p., three times a week, 4 months; compared with vehicle-treated TG
Description: as §1
The passive avoidance test was performed as described previously[44] with the following modifications. Mice (n = 8 per group) were adapted in the passive avoidance chamber (Gemini) for 10 min and then returned to their home cages. The chamber is composed of a light compartment and a dark compartment separated by a connecting gate. The following day, the mice were placed in the light compartment, and the gate was opened after 30 s. When mice entered the dark compartment, the gate was closed, and an electrical foot shock (3 mA) was delivered for 2 s. The mice were left in the dark compartment for 30 s after the foot shock so that they associated the environment with the aversive stimulus. The mice were then returned to their home cages. […] The step-through latency, the time required for mice to enter the dark compartment, was measured up to 540 s.

Tau^P301L-BiFC mice [4] = test: BiFC fluorescence imaging of brain tissue sections; type: in vivo, mouse; settings: 5 mg/kg i.p., 4 months; for Tau-BiFC intensity in the hippocampus compared to vehicle-treated group: hippocampal CA1; for Tau-BiFC intensity in the cortex compared to vehicle-treated group: somatosensory cortex layer V
Description: as §1
Brain tissue sections (n = 8 per group) were mounted onto slides. To reduce autofluorescence, brain tissue sections were stained with Sudan Black B solution (70% ethanol containing 0.05% Sudan Black B) for 10 min, washed three times with PBS containing 0.1% Triton X-100 (Sigma), and then washed with distilled water. For counterstaining of nuclei, brain tissues were stained with Hoechst (0.5 μg/mL) for 30 min. BiFC fluorescence (λex = 460–490 nm and λem = 500–550 nm) images were acquired using Axio Scan. Z1 (ZEISS). For quantitative analysis, the mean BiFC fluorescence intensity was measured in the somatosensory cortex (layer V) and hippocampal CA1 from AP;−1.82. To normalize the background fluorescence between the brain samples, the habenular region was used as an internal control. Using ImageJ software (NIH), the region of interest was masked, and the fluorescence intensity value was calculated. Data are shown as the average and standard deviation of the mean fluorescence intensities of brain images from six to eight animals.

tau [5] = molecular target: T1, tau (Homo sapiens, UniProt P10636); test: Tau immunoblot of tau-BiFC cell lysates (reducing and nonreducing SDS-PAGE); settings: tauK18^P301L-activated tau-BiFC cells; for Level of disulfide-linked tau oligomers compared to basal: nonreducing SDS-PAGE, control 2.4 ± 0.4-fold
T1 sequence (P10636 1-441 isoform P10636-8): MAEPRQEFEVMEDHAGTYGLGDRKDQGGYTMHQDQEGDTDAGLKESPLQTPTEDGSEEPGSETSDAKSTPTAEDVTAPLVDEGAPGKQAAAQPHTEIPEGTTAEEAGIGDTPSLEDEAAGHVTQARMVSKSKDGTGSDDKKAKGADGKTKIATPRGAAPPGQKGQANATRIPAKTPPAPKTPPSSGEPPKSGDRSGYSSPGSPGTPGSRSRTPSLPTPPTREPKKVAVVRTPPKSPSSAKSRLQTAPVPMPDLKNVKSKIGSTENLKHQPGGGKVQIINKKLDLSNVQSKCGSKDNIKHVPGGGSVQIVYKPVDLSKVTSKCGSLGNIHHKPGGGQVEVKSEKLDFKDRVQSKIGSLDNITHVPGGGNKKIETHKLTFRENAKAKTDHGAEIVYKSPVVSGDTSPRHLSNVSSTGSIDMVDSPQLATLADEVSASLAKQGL
T1 sequence (P10636 1-441 isoform P10636-8): as above
Description: For reducing SDS‒PAGE analysis, cell or brain lysates were mixed with 4x Laemmli buffer containing 10% β-mercaptoethanol (BME) and boiled at 97 °C for 5 min. For nonreducing SDS‒PAGE analysis, cell or brain lysates were mixed with 4x Laemmli buffer without BME. For immunoblot analysis, 10 μg of each lysate was separated on a 10% SDS–PAGE gel and transferred to a PVDF membrane. The levels of total tau and phosphorylated tau were detected by anti-tau antibodies against 2B11 (IBL), Tau5 (Abcam), pSer199 (Abcam), pSer396 (Abcam), and pThr205 (Abcam). […] Band intensity was quantified using ImageJ software (NIH). All data were normalized to β-actin.

tau [6] = molecular target: T1, tau; test: Tau-BiFC response in tau-BiFC cells (high-content imaging); type: cell-based; set-up: expressed in transfected cells; host or cells: HEK293 Tau-BiFC cells (G418-selected); settings: 48 h of treatment
[7] = Tau-BiFC^ON by forskolin (30 μM)
[8] = Tau-BiFC^ON by tauK18^P301L (5 μg/mL)

| SMILES | P1: intact cell population out of total cells (Tau-BiFC cells; drug 15 μM with tauK18^P301L) [%] | Median BiFC fluorescence intensity of BiFC-responding cells (Tau-BiFC cells; drug 15 μM with tauK18^P301L) | Recognition index (RI) for a novel object (Tau^P301L-BiFC mice [1]) | Percent alternation (Tau^P301L-BiFC mice [2]) [%] | Latency of entering the dark compartment (Tau^P301L-BiFC mice [3]) | Tau-BiFC intensity in the hippocampus compared to vehicle-treated group (Tau^P301L-BiFC mice [4]) [fold] | Tau-BiFC intensity in the cortex compared to vehicle-treated group (Tau^P301L-BiFC mice [4]) [fold] | Level of disulfide-linked tau oligomers compared to basal (tau [5]; 45 μM) [fold] | Level of tau phosphorylation at T205 compared to basal (tau [5]; 45 μM, control 1.9 ± 0.2-fold) [fold] | Total tau level compared to basal (tau [5]; control 2.0 ± 0.1-fold) [fold] | EC50 (tau [6]; [7]) [µM] | EC50 (tau [6]; [8]) [µM] | P1: intact cell population out of total cells (Tau-BiFC cells; drug 5 μM with tauK18^P301L) [%] | Median BiFC fluorescence intensity of BiFC-responding cells (Tau-BiFC cells; drug 5 μM with tauK18^P301L) | Level of disulfide-linked tau oligomers compared to basal (tau [5]; 5 μM) [fold] | Level of pS199-positive monomers compared to basal (tau [5]; 5 μM, reducing gel) [fold] | Level of pS199-positive oligomers compared to basal (tau [5]; 5 μM, reducing gel) [fold] | Level of pT205-positive monomers compared to basal (tau [5]; 5 μM, reducing gel) [fold] | Level of pT205-positive oligomers compared to basal (tau [5]; 5 μM, reducing gel) [fold] |
| --- | --- | --- | --- | --- | --- | --- | --- | --- | --- | --- | --- | --- | --- | --- | --- | --- | --- | --- | --- |
| C[C@@H]1CC(=O)NN=C1c1ccc(NN=C(C#N)C#N)cc1 [Levosimendan] | 69.0 | 249 ± 59 | 0.69 | 70.4 ± 4.2 | delayed latency or not entering the chamber | 0.4 ± 0.2 | 0.6 ± 01 | 0.8 ± 0.2 | 1.0 ± 0.1 | 1.0 ± 0.2 | 1.9 ± 0.1 | 2.2 ± 0.1 | – | – | – | – | – | – | – |
| CN(C)c1ccc2c(c1)Sc1cc(N(C)C)ccc1N2.CS(=O)(=O)O.CS(=O)(=O)O [LMTM, leucomethylene blue mesylate] | – | – | 0.59 | 68.9 ± 3.5 | did not show significant improvement | 0.6 ± 0.1 | 0.7 ± 0.2 | – | – | – | 2.2 ± 0.2 | 2.7 ± 0.2 | 14.5 | 596 ± 57 | 1.9 ± 0.4 | 0.3 ± 0.0 | 0.4 ± 0.1 | 0.2 ± 0.2 | 0.6 ± 0.2 |
